Test results from US20170304336A1, “COMBINATION” (priority 2014, published 2017).
Values joined by “and” are separate entries in the source; they are usually repeats but may differ in a detail not shown here. Equal values may be shown once.

Experiments:
[1] = Mass coefficients of organs (pancreas, liver, kidneys) of rats; format: in vivo, male rats of Wistar line; conditions: for weight coefficient, Kidneys / weight coefficient, Liver: in %
Method: To calculate mass coefficients the pancreas, liver and kidneys of the animals were extracted. The organs were weighed and the mass coefficients were calculated by the following formula:
Mass coefficient=(organ weight/animal body weight)×100%

[2] = system: experimental rat hypercholesterolemia model; experiment: Lipid spectrum of blood in experimental rat hypercholesterolemia model; format: in vivo, male rats of Wistar line
Method: The animals used were male rats of Wistar line. […] The proposed model using rats as the experimental animals is a reproducible standard model for evaluation of hypocholesterolemic effect.
(§1) Evaluation of hypocholesterolemic efficacy and safety of pharmaceutical combination was performed in vivo in experimental rat hypercholesterolemia model.
(§2) For 90 days the studied animals received hypercholesterol diet for pathology induction. The diet included Cholesterol+Cholic acid+Overheated fats (deep fat).
For 90 days the animals received the said ration ad libitum (30 g feed per animal). Development of hypercholesterolemia in animals was evaluated based on changes in lipid spectrum parameters on Day 30 of the study.
(§3) Drugs were introduced intragastrically with an esophageal bougie daily on Day 31-90 of the study at the same time of day.
Biochemical parameters and activity of blood serum enzymes (total cholesterol (CHS), LDL-CHS, HDL-CHS, triglycerides.
1.0-1.84 ml blood samples for the study of biochemical parameters were taken from tail vein of rats. Blood samples were taken from the animals after 14-15-hour's fasting at same time of day (9.00-11.00). For biochemical parameters tests a Biochemical Analyzer A-25 (Biosystems, Spain) was used. […]

[3] = Dynamics of body weight of rabbits (Schemes A and B); format: in vivo, male rabbits of Californian breed; conditions: for Body weight: Scheme A, M ± SEM
Excerpt: The animals used in this experiment were involved reproductive male rabbits of Californian breed. 144 rabbits were used. The weight of the animals at the beginning of the trial ranged from 2.5 to 3 kg; the animals were 8 weeks old. Before the study the laboratory animals were contained for 27 and for 37 days in the separate coops for adaptation. During this period, clinical condition of animals was controlled every day by visual inspection. The criteria of the inclusion of animals in the experiment were health and body weight.
The introduction of drugs under two schemes was used to determine the mechanism of action of the studied drugs and the impact on the different stages of atherosclerosis.
Cholesterol administered daily in an oil solution at 0.3 g/kg of animal body weight, one time, 4 hours after drug administration. Cholesterol was dissolved in hot sunflower oil and administered to the animals through noninvasive probe into the stomach. The duration of administration amounted cholesterol from 1 to 90 days in subgroup A and 1 to 120 days in subgroup B. 2. After 30 days from the initiation of administration of cholesterol vitamin D3 (cholecalciferol) in a dose of 0.256 ml/kg was added to the diet of animals to enhance aortic lipidosis. Cholecalciferol was administered intragastrically via a probe from 31 till 60 days (Scheme A and B). […] In order to gain atherosclerotic lesions in aorta and atherosclerosis induction time reduction the animals were administered a dose of epinephrineequal to 0.04 mg/kg intravenously since 31 till 60 every five days (Scheme A and B).
Animal body weight was measured in accordance with standard procedures prior to the study, then—weekly (for calculating the volume of administration of the test compound and the reference drug) and immediately before euthanasia (on days 60 and 120)—to calculate the weight gain.
The administration was carried out intragastrically in accordance with standard procedures using atraumatic probe according to two treatment regimens every day at the same time.

[4] = system: experimental rat hypercholesterolemia model; experiment: Biochemical blood analysis (drug toxicity parameters) in rat hypercholesterolemia model; format: in vivo, male rats of Wistar line
Method: as §1, §2, §3
Biochemical parameters and activity of serum enzymes (aspartate- and alanine aminotransferase, creatine phosphokinase, urea, serum amylase, total bilirubin, direct bilirubin, indirect bilirubin, serum glucose, cations K^+, Na^+).
1.0-1.84 ml blood samples for the study of biochemical parameters were taken from tail vein of rats. Blood samples were taken from the animals after 14-15-hour's fasting at same time of day (9.00-11.00). For biochemical parameters tests a Biochemical Analyzer A-25 (Biosystems, Spain) was used.
Vol. 4. pp. 1794-1798; Pearlman F C and Lee R T Y. Clin Chem 1974, 20, 447-453; Zoppi F et al, Peracino A., Fenili D., Marcovina S. and Ramella C. Giorn It Chim Cl. […] C. et al Clin Chem. 1974. Vol. 20. pp. 470-475; and in Meiattini F., et al, Clin Chem. 1978. Vol. 24. pp. 2161-2165 (total cholesterol); Warnick G R et al. Clin Chem 2001, 47, 1579-96 (HDL/LDL); Bucolo G and David H. Clin Chem. 1973.-Vol. 19. pp. 476-482; and in Fossati P. and, Prencipe L., Clin Chem. 1982. Vol. 28. pp. 2077-2080 (triglycerides); Trinder P. Ann Clin Biochem. 1969. Vol. 6. pp. 24-27).

[5] = Mass coefficients of liver and pancreas of rabbits; format: in vivo, male rabbits of Californian breed; conditions: for Mass ratios, M ± SEM, Liver / Mass ratios, M ± SEM, Pancreas: dose 100 mg; for pancreatic mass coefficients relative to the control group: rosuvastatin 40 mg, AGA 100 mg
[6] = (organ weight/animal body weight)×100%, Day 90 of study, dose 108 mg
[7] = M ± m, RV + AGA 10 + 108 mg, RV 10 mg, AGA 108 mg
[8] = Day 30 of treatment (Day 60 of study), dose 108 mg
[9] = Day 60 of treatment (Day 90 of study), dose 108 mg
[10] = blood, Day 60 of the treatment (Day 90 of the study), RV + AGA 10 + 108 mg, RV 10 mg, AGA 108 mg
[11] = blood, Day 60 of the treatment (Day 90 of the study), SV + AGA 20 + 108 mg, SV 20 mg, AGA 108 mg
[12] = M ± m, PV + GtA 40 + 108 mg, PV 40 mg, GtA 108 mg
[13] = M ± m, group 3 of the rosuvastatin table, 20 mg
[14] = Day 30 of treatment (Day 60 of study), dose 40 mg
[15] = Day 60 of treatment (Day 90 of study), dose 40 mg
[16] = blood, Day 60 of the treatment (Day 90 of the study), PV + GtA 40 + 108 mg, PV 20 mg, GtA 108 mg

With `CC1(C)[C@@H](O[C@H]2O[C@H](C(=O)O)[C@@H](O)[C@H](O)[C@H]2O[C@@H]2O[C@H](C(=O)O)[C@@H](O)[C@H](O)[C@H]2O)CC[C@]2(C)[C@H]3C(=O)C=C4[C@@H]5C[C@@](C)(C(=O)O)CC[C@]5(C)CC[C@@]4(C)[C@]3(C)CC[C@@H]12.N` [AGA, Monoammonium glycyrrhizinate] the “weight coefficient, Pancreas” value [1, 6] was 0.21 ± 0.01^2, the “weight coefficient, Kidneys” value [1, 6] was 0.81 ± 0.02 and the “weight coefficient, Liver” value [1, 6] was 4.40 ± 0.09. For the same compound, the “weight coefficient, Pancreas” value [1, 7] was 0.22 ± 0.01^2, the “weight coefficient, Kidneys” value [1, 7] was 0.81 ± 0.01 and the “weight coefficient, Liver” value [1, 7] was 4.41 ± 0.08. For the same compound, the “HDL CHS” value [2, 8] was 0.53 ± 0.05 mmol/L, the “LDL CHS” value [2, 8] was 4.40 ± 0.4 mmol/L and the TG [2, 8] was 1.5 ± 0.11 mmol/L. The “Total CHS” value [2, 8] was 5.8 ± 0.5 mmol/L, the “HDL CHS” value [2, 9] was 0.63 ± 0.05 mmol/L and the “LDL CHS” value [2, 9] was 3.80 ± 0.3 mmol/L. For the same compound, the TG [2, 9] was 1.30 ± 0.12 mmol/L, the “Total CHS” value [2, 9] was 4.5 ± 0.4 mmol/L and the Body weight ([3]; Day 0 (Before the study), dose group 100 mg (Table 37)) was 2936 ± 150 g. The Body weight ([3]; Day 28 (in the setting of pathology without treatment), dose group 100 mg (Table 37)) was 3369 ± 168 g, the Body weight ([3]; Day 90 (in the setting of pathology with treatment), dose 100 mg (Table 37)) was 3955 ± 119 g and the “body weight versus control animals” value ([3]; Scheme B, day 120, rosuvastatin+AGA 20+200 mg, atorvastatin+AGA 20+100 mg, AGA 100 mg) was “significantly lower”. For the same compound, the “Body weight, M ± SEM, Day 120 (in the setting of pathology with treatment)” value ([3]; Scheme B, dose 100 mg) was 4150 ± 144^2 g, the “Body weight, M ± SEM, Day 0 (Before the study)” value ([3]; Scheme B, dose 100 mg, baseline) was 2809 ± 145 g and the “Body weight, M ± SEM, Day 56 (in the setting of pathology without treatment)” value ([3]; Scheme B, dose 100 mg, before treatment) was 3569 ± 164 g. For the same compound, the ALT [4, 8] was 98 U/l, the AST [4, 8] was 130 U/l and the Amylase [4, 8] was 620 U/l. The Bilirubin direct [4, 8] was 2.1 mg/dL, the Bilirubin indirect [4, 8] was 1.8 mg/dL and the Bilirubin total [4, 8] was 4.1 mg/dL. The CPK [4, 8] was 310 U/l and 312 U/l, the Glucose [4, 8] was 112 mg/dL and the Potassium [4, 8] was 2.7 mM. The Sodium [4, 8] was 120 mmol, the Urea [4, 8] was 6.8 mmol/L and the ALT [4, 10] was 100 U/l. It also gave an AST [4, 10] of 131 U/l, an Amylase [4, 10] of 600 U/l and a Bilirubin direct [4, 10] of 2.3 mg/dL. The Bilirubin indirect [4, 10] was 1.9 mg/dL, the Bilirubin total [4, 10] was 2.9 mg/dL and the CPK [4, 10] was 310 U/l. For the same compound, the Glucose [4, 10] was 110 mg/dL, the Potassium [4, 10] was 3.2 mM and the Sodium [4, 10] was 122 mmol. It also gave a Urea [4, 10] of 5.5 mmol/L, an ALT [4, 11] of 100 U/l and an AST [4, 11] of 131 U/l. The Amylase [4, 11] was 600 U/l, the Bilirubin direct [4, 11] was 2.3 mg/dL and the Bilirubin indirect [4, 11] was 1.9 mg/dL. For the same compound, the Bilirubin total [4, 11] was 2.9 mg/dL, the CPK [4, 11] was 310 U/l and the Glucose [4, 11] was 110 mg/dL. It also gave a Potassium [4, 11] of 3.2 mM, a Sodium [4, 11] of 122 mmol and a Urea [4, 11] of 5.5 mmol/L. The “Mass ratios, M ± SEM, Liver” value ([5]; Scheme A) was 3.3 ± 0.1, the “Mass ratios, M ± SEM, Pancreas” value ([5]; Scheme A) was 0.05 ± 0.003 and the “pancreatic mass coefficients relative to the control group” value ([5]; Scheme A) was “Statistically significant decrease”. The “Mass ratios, M ± SEM, Liver” value ([5]; Scheme B) was 3.0 ± 0.2, the “Mass ratios, M ± SEM, Pancreas” value ([5]; Scheme B) was 0.06 ± 0.004^ and the “pancreatic mass coefficients relative to the control group” value ([5]; Scheme B) was “statistically significant decrease”.
For `CC[C@H](C)C(=O)OC1C[C@H](O)C=C2C=C[C@H](C)C(CC[C@@H](O)C[C@@H](O)CC(=O)O)[C@H]21` (stereo in doubt) [PV, (3R,5R)-3,5-dihydroxy-7-((1R,2S,6S,8R,8aR)-6-hydroxy-2-methyl-8-{[(2S)-2-methylbutanoyl]oxy}-1,2,6,7,8,8a-hexahydronaphthalen-1-yl)-heptanoic acid], the “weight coefficient, Pancreas” value [1, 12] was 0.47 ± 0.03^1, the “weight coefficient, Kidneys” value [1, 12] was 0.76 ± 0.01 and the “weight coefficient, Liver” value [1, 12] was 4.47 ± 0.17. The “weight coefficient, Pancreas” value [1, 13] was 0.49 ± 0.03^1, the “weight coefficient, Kidneys” value [1, 13] was 0.78 ± 0.02 and the “weight coefficient, Liver” value [1, 13] was 4.49 ± 0.15. For the same compound, the “HDL CHS” value [2, 14] was 0.65 ± 0.04 mmol/L, the “LDL CHS” value [2, 14] was 4.12 ± 0.35 mmol/L and the TG [2, 14] was 1.33 ± 0.12 mmol/L. The “Total CHS” value [2, 14] was 4.4 ± 0.3 mmol/L, the “HDL CHS” value [2, 15] was 0.75 ± 0.04 mmol/L and the “LDL CHS” value [2, 15] was 3.70 ± 0.35 mmol/L. The TG [2, 15] was 1.33 ± 0.11 mmol/L, the “Total CHS” value [2, 15] was 4.0 ± 0.3 mmol/L and the ALT [4, 14] was 177 U/l. For the same compound, the AST [4, 14] was 173 U/l, the Amylase [4, 14] was 641 U/l and the Bilirubin direct [4, 14] was 2.8 mg/dL. The Bilirubin indirect [4, 14] was 2.2 mg/dL, the Bilirubin total [4, 14] was 4.7 mg/dL and the CPK [4, 14] was 604 U/l. It also gave a Glucose [4, 14] of 150 mg/dL, a Potassium [4, 14] of 3.4 mM and a Sodium [4, 14] of 127 mmol. The Urea [4, 14] was 7.0 mmol/L, the ALT [4, 16] was 135 U/l and the AST [4, 16] was 188 U/l. The Amylase [4, 16] was 586 U/l, the Bilirubin direct [4, 16] was 2.7 mg/dL and the Bilirubin indirect [4, 16] was 1.9 mg/dL. For the same compound, the Bilirubin total [4, 16] was 4.9 mg/dL, the CPK [4, 16] was 598 U/l and the Glucose [4, 16] was 160 mg/dL. The Potassium [4, 16] was 4.3 mM, the Sodium [4, 16] was 129 mmol and the Urea [4, 16] was 6.0 mmol/L.
For `CC1(C)[C@@H](O)CC[C@]2(C)[C@H]3C(=O)C=C4[C@@H]5C[C@@](C)(C(=O)O)CC[C@]5(C)CC[C@@]4(C)[C@]3(C)CC[C@@H]12` [GtA, (2S,4aS,6aS,6bR,8aR,10S,12aS,12bR,14bR)-10-hydroxy-2,4a,6a,6b,9,9,12a-heptamethyl-13-oxo-1,2,3,4,4a,5,6,6a,6b,7,8,8a,9,10,11,12,12a,12b,13,14b-icosahydropicene-2-carboxylic acid], the “weight coefficient, Pancreas” value [1, 12] was 0.21 ± 0.01^2, the “weight coefficient, Kidneys” value [1, 12] was 0.80 ± 0.02 and the “weight coefficient, Liver” value [1, 12] was 4.43 ± 0.10. The “HDL CHS” value [2, 8] was 0.51 ± 0.04 mmol/L, the “LDL CHS” value [2, 8] was 4.40 ± 0.4 mmol/L and the TG [2, 8] was 1.6 ± 0.11 mmol/L. For the same compound, the “Total CHS” value [2, 8] was 4.9 ± 0.5 mmol/L, the “HDL CHS” value [2, 9] was 0.61 ± 0.03 mmol/L and the “LDL CHS” value [2, 9] was 4.24 ± 0.4 mmol/L. The TG [2, 9] was 1.5 ± 0.11 mmol/L, the “Total CHS” value [2, 9] was 4.5 ± 0.5 mmol/L and the ALT [4, 8] was 97 U/l. It also gave an AST [4, 8] of 130 U/l, an Amylase [4, 8] of 622 U/l and a Bilirubin direct [4, 8] of 1.1 mg/dL. For the same compound, the Bilirubin indirect [4, 8] was 1.7 mg/dL, the Bilirubin total [4, 8] was 3.2 mg/dL and the CPK [4, 8] was 390 U/l. The Glucose [4, 8] was 119 mg/dL, the Potassium [4, 8] was 2.8 mM and the Urea [4, 8] was 6.5 mmol/L. The ALT [4, 16] was 101 U/l, the AST [4, 16] was 120 U/l and the Amylase [4, 16] was 599 U/l. The Bilirubin direct [4, 16] was 1.2 mg/dL, the Bilirubin indirect [4, 16] was 1.8 mg/dL and the Bilirubin total [4, 16] was 2.7 mg/dL. It also gave a CPK [4, 16] of 300 U/l, a Glucose [4, 16] of 112 mg/dL and a Potassium [4, 16] of 3.1 mM. It also gave a Urea [4, 16] of 5.5 mmol/L.
